Experimental data from ChEMBL document CHEMBL1137405, “Structural basis for the structure-activity relationships of peroxisome proliferator-activated receptor agonists” (J Med Chem, 2006).

Key:
[1] = target: T1, Peroxisome proliferator-activated receptor gamma (Homo sapiens, UniProt P37231); assay type: cell-based, Huh-7
T1 sequence (P37231 whole entry): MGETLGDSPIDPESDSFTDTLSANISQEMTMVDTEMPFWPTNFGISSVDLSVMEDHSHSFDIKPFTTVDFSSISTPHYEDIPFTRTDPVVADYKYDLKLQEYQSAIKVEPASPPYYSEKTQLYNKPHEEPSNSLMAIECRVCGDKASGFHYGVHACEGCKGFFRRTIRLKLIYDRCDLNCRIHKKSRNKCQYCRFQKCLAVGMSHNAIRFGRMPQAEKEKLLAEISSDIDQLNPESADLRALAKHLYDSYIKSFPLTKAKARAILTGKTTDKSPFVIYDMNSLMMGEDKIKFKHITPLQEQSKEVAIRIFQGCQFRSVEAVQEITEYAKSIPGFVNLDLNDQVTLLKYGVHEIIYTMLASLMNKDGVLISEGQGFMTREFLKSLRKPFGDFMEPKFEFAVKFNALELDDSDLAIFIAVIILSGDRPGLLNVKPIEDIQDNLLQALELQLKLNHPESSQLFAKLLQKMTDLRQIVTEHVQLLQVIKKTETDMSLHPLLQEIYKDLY
Description: Activity at human PPAR gamma in Huh7 cells by transactivation assay

[2] = target: T2, Peroxisome proliferator-activated receptor delta (Homo sapiens, UniProt Q03181); assay: Activity at human PPAR delta in Huh7 cells by transactivation assay; assay type: cell-based, Huh-7
T2 sequence (Q03181 whole entry): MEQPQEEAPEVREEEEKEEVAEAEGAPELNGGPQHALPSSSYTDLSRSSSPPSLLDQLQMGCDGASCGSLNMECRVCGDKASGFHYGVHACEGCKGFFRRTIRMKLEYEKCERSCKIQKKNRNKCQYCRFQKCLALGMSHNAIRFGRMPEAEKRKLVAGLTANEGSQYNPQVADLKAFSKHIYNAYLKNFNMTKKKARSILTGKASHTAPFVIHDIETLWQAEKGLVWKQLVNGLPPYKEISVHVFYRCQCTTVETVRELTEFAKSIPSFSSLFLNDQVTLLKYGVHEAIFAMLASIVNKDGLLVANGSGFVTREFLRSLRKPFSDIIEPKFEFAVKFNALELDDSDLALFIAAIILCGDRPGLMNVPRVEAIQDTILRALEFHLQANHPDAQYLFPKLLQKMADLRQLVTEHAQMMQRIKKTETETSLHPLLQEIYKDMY

[3] = target: T3, Peroxisome proliferator-activated receptor alpha (Homo sapiens, UniProt Q07869); assay: (§1) Activity at human PPAR alpha in Huh7 cells by transactivation assay; assay type: cell-based, Huh-7
T3 sequence (Q07869 whole entry): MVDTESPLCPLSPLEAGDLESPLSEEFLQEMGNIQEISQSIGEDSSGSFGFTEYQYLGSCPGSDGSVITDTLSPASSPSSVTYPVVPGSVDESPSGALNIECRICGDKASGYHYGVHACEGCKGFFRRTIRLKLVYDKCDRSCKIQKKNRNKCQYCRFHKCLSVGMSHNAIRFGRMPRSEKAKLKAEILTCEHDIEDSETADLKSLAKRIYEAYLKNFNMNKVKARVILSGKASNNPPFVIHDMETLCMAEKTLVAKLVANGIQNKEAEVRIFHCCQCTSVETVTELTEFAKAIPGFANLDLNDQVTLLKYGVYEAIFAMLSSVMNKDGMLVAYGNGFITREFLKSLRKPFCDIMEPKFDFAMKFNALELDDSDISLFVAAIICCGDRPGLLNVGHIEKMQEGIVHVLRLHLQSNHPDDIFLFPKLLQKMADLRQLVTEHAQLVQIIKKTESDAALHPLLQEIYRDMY

[4] = target: T4, Peroxisome proliferator-activated receptor alpha (Homo sapiens) (UniProt Q07869); assay: as §1; assay type: cell-based; settings: Huh-7, filed as agonist
T4 sequence (whole entry): T3 sequence (Q07869 whole entry)

| Compound | EC50 [1] [nM] | EC50 [2] [nM] | EC50 [3] [nM] | Activity [4] |
| --- | --- | --- | --- | --- |
| CCCc1c(OCCCn2ccc3ccc(OCC(=O)O)cc32)ccc2cc(C(=O)c3ccccc3)ccc12 | 3470 | 6980 | 2080 | – |
| CCCc1c(OCCCOc2ccc3c(ccn3CC(=O)O)c2)ccc2cc(C(=O)c3ccccc3)ccc12 | – | – | – | Agonist |
| CCCc1c(OCCCn2ccc3c(OC(C)(C)C(=O)O)cccc32)ccc2cc(C(=O)c3ccccc3)ccc12 | 210 | 4300 | 282 | Agonist |
| CCCc1c(OCCCn2ccc3c(OCC(=O)O)cccc32)ccc2cc(C(=O)c3ccccc3)ccc12 | 4220 | > 10000 | 206 | – |

The remaining lines, values ahead:

| EC50 [1] [nM] | EC50 [2] [nM] | EC50 [3] [nM] | Activity [4] | Compound |
| --- | --- | --- | --- | --- |
| 2210 | > 10000 | 32 | Agonist | CCCc1c(OCCCn2ccc3cc(OCC(=O)O)ccc32)ccc2cc(C(=O)c3ccccc3)ccc12 |
| 650 | > 10000 | 123 | Agonist | CCCc1c(OCCCn2ccc3cc(OC(C)(C)C(=O)O)ccc32)ccc2cc(C(=O)c3ccccc3)ccc12 |
| 470 | 4630 | 1100 | – | CCCc1c(OCCCn2ccc3ccc(OC(C)(C)C(=O)O)cc32)ccc2cc(C(=O)c3ccccc3)ccc12 |
